Assay results taken from the supplement of paper PMC10307832.

Columns and labels:
Assay in all cases: relative viability (nuclei count vs DMSO), 5 days (fraction); higher = more cells survive
[1] = tested on: NCI-H838; conditions: first compound 4 µM
How it was run: (§1)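 Relative viability is defined as nuclei in treated wells over nuclei in vehicle wells. Duplicate plates were run and medians reported. Lung cancer cell lines in 1536-well plates were dosed by pin tool one day after seeding, with one drug or with a fixed anchor-drug dose plus five library-drug doses (not always all listed) in √10 steps, and nuclei were counted after 5 days.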

[2] = tested on: NCI-H358
How it was run: as §1

[3] = tested on: NCI-H2023
How it was run: as §1

[4] = tested on: HCC-15
How it was run: as §1

[5] = tested on: HCC-366
How it was run: as §1

[6] = tested on: NCI-H441
How it was run: as §1

[7] = tested on: NCI-H460
How it was run: as §1

[8] = tested on: NCI-H1395
How it was run: as §1

[9] = tested on: HCC-44
How it was run: as §1

[10] = tested on: NCI-H1734
How it was run: as §1

[11] = tested on: EKVX
How it was run: as §1

[12] = tested on: NCI-H1755
How it was run: as §1

[13] = tested on: NCI-H1437
How it was run: as §1

COc1cc(N2CCC(C(N)=O)CC2)ccc1Nc1nc(N)c(Cl)c(Nc2ccccc2S(=O)(=O)C(C)C)n1 [HG-5-88-01] + N=C(N)NC(=N)NCCc1ccccc1 [Phenformin] (partner 250 µM)
relative viability [1]: 0.313
relative viability ([2]; first compound 0.04 µM): 0.268
relative viability ([2]; first compound 0.1265 µM): 0.246
relative viability ([2]; first compound 0.4 µM): 0.216
relative viability ([2]; first compound 1.265 µM): 0.129
relative viability ([2]; first compound 4 µM): 0.139
relative viability ([3]; first compound 0.04 µM): 0.521
relative viability ([3]; first compound 0.1265 µM): 0.466
relative viability ([3]; first compound 0.4 µM): 0.473
relative viability ([3]; first compound 1.265 µM): 0.411
relative viability ([3]; first compound 4 µM): 0.34
relative viability ([4]; first compound 0.04 µM): 0.528
relative viability ([4]; first compound 0.1265 µM): 0.488
relative viability ([4]; first compound 0.4 µM): 0.4
relative viability ([4]; first compound 1.265 µM): 0.461
relative viability ([4]; first compound 4 µM): 0.231
relative viability ([5]; first compound 0.04 µM): 0.685
relative viability ([5]; first compound 0.1265 µM): 0.634
relative viability ([5]; first compound 0.4 µM): 0.581
relative viability ([5]; first compound 1.265 µM): 0.681
relative viability ([5]; first compound 4 µM): 0.476
relative viability ([6]; first compound 0.04 µM): 0.835
relative viability ([6]; first compound 0.1265 µM): 0.789
relative viability ([6]; first compound 0.4 µM): 0.852
relative viability ([6]; first compound 1.265 µM): 0.589
relative viability ([6]; first compound 4 µM): 0.294
relative viability ([7]; first compound 0.04 µM): 0.497
relative viability ([7]; first compound 0.1265 µM): 0.491
relative viability ([7]; first compound 0.4 µM): 0.587
relative viability ([7]; first compound 1.265 µM): 0.51
relative viability ([7]; first compound 4 µM): 0.214
relative viability ([8]; first compound 0.04 µM): 0.423
relative viability ([8]; first compound 0.1265 µM): 0.422
relative viability ([8]; first compound 0.4 µM): 0.45
relative viability ([8]; first compound 1.265 µM): 0.449
relative viability ([8]; first compound 4 µM): 0.463
relative viability ([9]; first compound 0.04 µM): 0.303
relative viability ([9]; first compound 0.1265 µM): 0.156
relative viability ([9]; first compound 0.4 µM): 0.201
relative viability ([9]; first compound 1.265 µM): 0.159
relative viability ([9]; first compound 4 µM): 0.0886
relative viability ([10]; first compound 0.04 µM): 0.345
relative viability ([10]; first compound 0.1265 µM): 0.364
relative viability ([10]; first compound 0.4 µM): 0.333
relative viability ([10]; first compound 1.265 µM): 0.371
relative viability ([10]; first compound 4 µM): 0.355
relative viability ([11]; first compound 0.04 µM): 0.276
relative viability ([11]; first compound 0.1265 µM): 0.262
relative viability ([11]; first compound 0.4 µM): 0.204
relative viability ([11]; first compound 4 µM): 0.226
relative viability ([12]; first compound 0.04 µM): 0.634
relative viability ([12]; first compound 0.1265 µM): 0.612
relative viability ([12]; first compound 0.4 µM): 0.605
relative viability ([12]; first compound 1.265 µM): 0.616
relative viability ([12]; first compound 4 µM): 0.521
relative viability ([13]; first compound 0.04 µM): 0.37
relative viability ([13]; first compound 0.1265 µM): 0.335
relative viability ([13]; first compound 0.4 µM): 0.466
relative viability ([13]; first compound 1.265 µM): 0.37
relative viability ([13]; first compound 4 µM): 0.194
